According to publication PMC10799935, “Discovery of a peripheral 5HT2A antagonist as a clinical candidate for metabolic dysfunction-associated steatohepatitis” (Nature Communications, 2024):
Values after ≈ are worked out from the molar mass of the structure shown. Values joined by “and” are separate entries in the source; they are usually repeats but may differ in a detail not shown here. Identical values can stand only once. “Also recorded” adds a separate entry of the source.

Assays:
[1] = molecular target: T1, 5HT2B (h) (Homo sapiens, UniProt P41595); assay: 5HT subtype antagonism assay (Eurofins Cerep): 5HT2B; format: cell-based
T1 construct: host or cells: CHO cells
T1 sequence (P41595 whole entry): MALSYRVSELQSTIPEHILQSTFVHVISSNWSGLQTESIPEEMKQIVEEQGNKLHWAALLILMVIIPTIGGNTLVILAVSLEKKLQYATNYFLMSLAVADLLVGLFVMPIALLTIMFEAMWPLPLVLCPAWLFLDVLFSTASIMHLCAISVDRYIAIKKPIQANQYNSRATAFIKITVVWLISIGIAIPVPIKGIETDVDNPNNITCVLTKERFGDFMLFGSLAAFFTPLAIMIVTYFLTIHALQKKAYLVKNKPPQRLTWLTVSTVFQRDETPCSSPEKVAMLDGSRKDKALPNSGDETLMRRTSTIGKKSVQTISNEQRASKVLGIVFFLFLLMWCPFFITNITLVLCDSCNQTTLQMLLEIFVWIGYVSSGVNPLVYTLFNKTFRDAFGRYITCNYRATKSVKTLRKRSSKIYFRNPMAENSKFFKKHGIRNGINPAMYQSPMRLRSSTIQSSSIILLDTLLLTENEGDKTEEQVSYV
Experimental: (§1) The derivatives were evaluated at a concentration of 1 μM for their antagonist activity on the 5HT2A receptor (Tables 1–3)[33],[34]. Human 5HT2A stably transfected HEK293 cells (a type of cell derived from kidney embryos)[20] were seeded in a 96-well plate (Costar; 3603) at a density of 9 × 10^4 in 100 μL of minimum essential medium (Welgene; LM007-86) containing 10% dialyzed fetal bovine serum (Gibco; 30067–334) and 1% penicillin/streptomycin (Gibco; 15140-122) and kept in a 37 °C incubator for 24 h. The cells were stained with 100 μL of cytosolic calcium dye using the FLIPR calcium 6 assay solution (Molecular devices, #R8190) supplemented with 2.5 mM probenecid (Sigma; P8761) and incubated for 1 h at 37 °C. After 1 h, the designated amount of the compound was treated in each well and incubated for another 1 h at 37 °C. Then, the cells were loaded in a Flexstation 3 microplate reader (Molecular Devices; FlexStaion) and 50 μL of 5 μM 5HT (serotonin hydrochloride, Sigma; H9523) was injected from a source plate (Nunc 96-well polystyrene conical bottom MicroWell Plate, Thermo; 249662) and the fluorescence intensity (Ex/Em-485nm/ 525 nm) was measured. […]
(§2) Antagonism assay Source Stimulus Incubation Measured Detection Method […]

[2] = physchem; details: pH 6.8, aqueous buffer
[3] = system: TNF-α; assay: CDAHFD mice: TNF-α immunohistochemical staining; format: in vivo, mouse; parameters: TNF-α immunohistochemical staining (TNF-a area), individual mouse / TNF-α immunohistochemical staining (TNF-a area), Average: unit not given here; details: for TNF-α immunohistochemical staining (TNF-a area), Average / TNF-α immunohistochemical staining (TNF-a area), individual mouse: CDAHFD mice; for TNF-α immunohistochemical staining (TNF-a area), Average: group average n=5, CDAHFD+Vehicle 9.246, Vehicle 2.978; for TNF-α immunohistochemical staining (TNF-a area), individual mouse: individual animals No. 1-5 (Fig.4g)
Source text: C57BL/6 J male mice were purchased from the Japan SLC. Inc (Hamamatsu, Japan). Mice (5 weeks old) were fed Teklad Certitied Irradiated Global 18% protein rodent diet purchased from Dooyeol Biotech Co. Ltd (Seoul, South Korea) during the acclimation period. The liver fibrosis/inflammation-induced groups were CDAHFD-fed (A06071302, Research diet). […] All animal experiments complied with the relevant ethical regulations.
Mouse liver tissues were fixed in 4% formalin solution (Sigma–Aldrich, St. Louis, MO, USA) and embedded in paraffin. 4-μm-thick liver sections were deparaffinized in xylene, and rehydrated through descending grades of ethanol. To evaluate liver fibrosis, sections were stained with Sirius red solution and subjected to immunohistochemical staining. Tissue sections, after deparaffinization, underwent a 16-hour incubation in a solution containing 0.1% Direct Red 80 (365548, Sigma-Aldrich) dissolved in Picric acid (P-201, Spectrum Chemical, CA, USA) for Sirius red staining. The sections were briefly immersed in a 0.01 N HCl solution (1129, Ducksan, Republic of Korea) for 2 min. and then rinsed with distilled water for destaining. Subsequently, the sections underwent dehydration through […] grades of ethanol. Immunohistochemical staining was performed using the Polyview Plus HRP-DAB (anti-Rabbit) Kit (ENZ-KIT159-0150, ENZO Life Science, NY, USA) following the manufacturers’ instructions. Deparaffinized sections were boiled in IHC-TekTM Epitope Retrieval solution (IW-1100, IHCWORLD, MD, USA) for 45 min., cooled for 1 h, incubated in a 3% H2O2 solution (69355-0350, JUNSEI, Japan) for 15 min., washed, and then incubated overnight with primary antibodies (α-SMA, ab5694, Abcam, 1:500 dilution; TNF-α, ab6671, Abcam, 1:100 dilution and IL-1β, ab9722, Abcam, 1:100 dilution). Subsequently, the sections were treated with Polyview Plus HRP for 2 h and developed with DAB chromogen/substrate. Stained […] sections were confirmed by light microscopy (Olympus BX53 upright microscope, Tokyo, Japan). The degree of hepatic fibrosis and immunohistochemical staining was quantified by morphometric analysis of stained liver sections using NIH ImageJ software.

[4] = molecular target: CYP2C9 (Homo sapiens, UniProt P11712); assay: in vitro
Chain of CYP2C9 (P11712 whole entry): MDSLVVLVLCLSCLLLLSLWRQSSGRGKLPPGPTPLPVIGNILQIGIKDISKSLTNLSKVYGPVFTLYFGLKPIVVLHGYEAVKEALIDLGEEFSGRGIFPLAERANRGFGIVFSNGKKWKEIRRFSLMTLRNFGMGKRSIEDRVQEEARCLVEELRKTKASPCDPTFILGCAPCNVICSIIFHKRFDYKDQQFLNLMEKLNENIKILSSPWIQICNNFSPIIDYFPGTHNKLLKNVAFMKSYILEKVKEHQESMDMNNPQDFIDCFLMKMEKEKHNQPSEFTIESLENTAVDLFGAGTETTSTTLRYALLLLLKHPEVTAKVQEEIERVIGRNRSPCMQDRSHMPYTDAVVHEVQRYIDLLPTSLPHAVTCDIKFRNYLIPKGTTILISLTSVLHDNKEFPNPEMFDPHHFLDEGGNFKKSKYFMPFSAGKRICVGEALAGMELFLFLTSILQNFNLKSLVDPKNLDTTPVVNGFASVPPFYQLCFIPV

[5] = system: HFD-fed C57BL/6J mice; assay: DIO mice: quantification of hepatic triglyceride; format: in vivo, mouse; details: DIO mice; for Hepatic TG levels, Mean Diff. (Vehicle vs. treated): Dunnett's multiple comparisons test; for Hepatic TG Levels, TG per protein, group mean: PO, liver
Experimental: Liver tissues were homogenized in 5% NP-40 using FastPrep-24. To solubilize fat, the homogenates were heated to 95 °C for 5 min and cooled at 23 °C, and repeated. Triglyceride Reagent (Sigma-Aldrich) or DW was added and incubated at 37 °C for 30 min to hydrolyze TG into glycerol. For the colorimetric assay of hydrolyzed TG levels, samples were incubated with Free Glycerol Reagent (Sigma-Aldrich) at 37 °C for 5 min. Differences in absorbance at 540 nm between hydrolyzed or non-hydrolyzed TG were quantified using a glycerol standard (Sigma-Aldrich). […]

[6] = molecular target: 5HT2A (Homo sapiens, UniProt P28223); assay: 5HT subtype antagonism assay (selectivity panel): 5HT2A; details: concentration not given
Chain of 5HT2A (P28223 whole entry): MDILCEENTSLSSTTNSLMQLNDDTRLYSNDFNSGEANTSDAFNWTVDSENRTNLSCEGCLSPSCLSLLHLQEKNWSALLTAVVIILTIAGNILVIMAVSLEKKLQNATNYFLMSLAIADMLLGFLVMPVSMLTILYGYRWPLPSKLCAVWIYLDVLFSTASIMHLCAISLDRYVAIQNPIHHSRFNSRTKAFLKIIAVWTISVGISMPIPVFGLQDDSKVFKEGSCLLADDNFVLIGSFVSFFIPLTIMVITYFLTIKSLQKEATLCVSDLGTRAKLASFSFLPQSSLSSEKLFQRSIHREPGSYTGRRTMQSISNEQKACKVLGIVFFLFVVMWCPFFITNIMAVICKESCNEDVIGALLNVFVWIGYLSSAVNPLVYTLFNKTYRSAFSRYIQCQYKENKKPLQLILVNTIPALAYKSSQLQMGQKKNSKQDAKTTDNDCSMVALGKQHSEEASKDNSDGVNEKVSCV

[7] = molecular target: CYP2D6 (Homo sapiens, UniProt P10635); assay: in vitro
Chain of CYP2D6 (P10635 whole entry): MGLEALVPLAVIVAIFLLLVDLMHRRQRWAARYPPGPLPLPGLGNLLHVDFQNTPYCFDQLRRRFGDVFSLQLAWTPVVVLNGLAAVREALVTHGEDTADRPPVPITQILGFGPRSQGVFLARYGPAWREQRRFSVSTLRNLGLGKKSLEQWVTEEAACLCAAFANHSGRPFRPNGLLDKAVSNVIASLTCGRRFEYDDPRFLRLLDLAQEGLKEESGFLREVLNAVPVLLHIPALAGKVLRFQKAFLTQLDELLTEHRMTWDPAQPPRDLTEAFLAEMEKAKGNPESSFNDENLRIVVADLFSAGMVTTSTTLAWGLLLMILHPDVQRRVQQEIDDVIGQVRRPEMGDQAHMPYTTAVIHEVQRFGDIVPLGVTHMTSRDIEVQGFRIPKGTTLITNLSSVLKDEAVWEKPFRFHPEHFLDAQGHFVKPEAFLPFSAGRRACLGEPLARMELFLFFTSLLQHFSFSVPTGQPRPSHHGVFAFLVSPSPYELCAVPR

[8] = molecular target: T2, 5HT7 (h) (Homo sapiens, UniProt P34969); assay: 5HT subtype antagonism assay (Eurofins Cerep): 5HT7; format: cell-based
T2 construct: host or cells: CHO cells
T2 sequence (P34969 whole entry): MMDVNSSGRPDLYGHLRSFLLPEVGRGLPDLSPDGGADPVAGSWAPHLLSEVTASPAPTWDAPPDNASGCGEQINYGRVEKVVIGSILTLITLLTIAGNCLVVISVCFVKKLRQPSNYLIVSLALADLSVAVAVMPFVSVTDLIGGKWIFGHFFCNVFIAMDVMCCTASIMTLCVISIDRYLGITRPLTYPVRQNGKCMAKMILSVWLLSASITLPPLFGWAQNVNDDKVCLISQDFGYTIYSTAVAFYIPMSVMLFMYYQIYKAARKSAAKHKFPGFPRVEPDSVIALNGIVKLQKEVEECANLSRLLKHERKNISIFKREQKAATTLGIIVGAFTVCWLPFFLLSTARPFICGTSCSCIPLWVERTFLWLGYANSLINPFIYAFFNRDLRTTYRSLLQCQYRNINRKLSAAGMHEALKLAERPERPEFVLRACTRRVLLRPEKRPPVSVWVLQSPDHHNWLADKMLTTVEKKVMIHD
Experimental: as §1, §2

Cc1nc2n(c(=O)c1CCN1CCC(=C3c4ccc(Cl)cc4CCc4cccnc43)CC1)CCCC2O (stereo not drawn) [Compound 11c]
Selectivity 2B: % inhibition ([1]; concentration not given): 94%
IC50 ([1]; read-out: Selectivity 2B: IC50): 290 nM
solubility [2]: 1300 µg/mL (≈ 2510 µM)
TNF-α immunohistochemical staining (TNF-a area), Average ([3]; 11c 5 mpk): 4.057
TNF-α immunohistochemical staining (TNF-a area), individual mouse ([3]; 11c 5 mpk): 3.240 and 5.741 and 5.588 and 3.146 and 2.573
TNF-α immunohistochemical staining (TNF-a area), Average ([3]; 11c 10mpk): 5.049
TNF-α immunohistochemical staining (TNF-a area), individual mouse ([3]; 11c 10mpk): 7.848 and 3.111 and 8.161 and 2.686 and 3.441
TNF-α expression (immunohistochemical staining) ([3]; CDAHFD-fed 11c vs CDAHFD-fed vehicle group): significant decrease
inhibition at 10 µM [4]: 3.17%
Hepatic TG levels, Mean Diff. (Vehicle vs. treated) ([5]; 5mpk): 5.95 mg/g protein
Hepatic TG levels, Mean Diff. (Vehicle vs. treated) ([5]; 10mpk): 31.37 mg/g protein
Hepatic TG Levels, TG per protein, group mean ([5]; 5mpk): 79.94 mg/g protein
Hepatic TG Levels, TG per protein, group mean ([5]; 10mpk): 54.51 mg/g protein
hepatic TG concentration ([5]; vs vehicle): significant reduction; also recorded: decreased
Selectivity 2 A: % inhibition [6]: 102%
inhibition at 10 µM [7]: 26.3%
Selectivity 7: % inhibition ([8]; concentration not given): 91%
IC50 ([8]; read-out: Selectivity 7: IC50): 100 nM
